# Results taken from patent US12677848B2, “Stevia flavor compositions” (PURECIRCLE USA INC., priority 2019, dated 2026).
# Legend:
# Format in all cases: in vivo, human
# [1] = tested on: consumer panel (company employees); assay: Sweetness perception threshold in puffed corn breakfast cereal (2-AFC)
# Description: […] As recommended by the FEMA Sensory guidance document,—Guidance for the Sensory Testing of Flavorings with Modifying Properties, within the FEMA GRAS™ Program, 2013—the recognition threshold concentration was determined using 2-alternateve forced choice (2-AFC) methodology.
# This is an evaluation of the recognition threshold concentration to follow methodology outlined in section 1.4.2 of the “Guidance for the Sensory Testing of Flavorings with Modifying Properties within the FEMA GRAS™ Program”.
# Sample Preparation: The puffed corn cereal (with no added sugar or flavor) purchased from local stores and sprayed with aqueous sucrose solutions using a portable atomizer to create a fine mist while tumbling the dry cereal grains. All the samples were dried to remove the added water from the samples. About 3 g of cereal was portioned into appropriately labeled blind-coded plastic 2 oz soufflé cup with lids. Samples were served dry to all panelists.
# [2] = tested on: consumer panel (company employees); assay: Sweetness perception threshold in neutral water (2-AFC); conditions: n = 30
# Text: Therefore we selected 50 ppm of PCS-3028 as the recognition threshold concentration. [table] This is a re-evaluation of the recognition threshold concentration to follow methodology outlined in section 1.4.2 of the “Guidance for the Sensory Testing of Flavorings with Modifying Properties within the FEMA GRAS™ Program”.
# [3] = tested on: consumer panel (company employees); assay: Sweetness perception threshold in lemon poppy seed muffin (2-AFC); conditions: n = 30
# Text: Additional threshold test data found for Lemon Poppy Seed Muffin provided in Appendix. [table] [table]
# [4] = Puffed Corn Cereal + vs + 250 ppm PCS-3028, n = 30
# [5] = 1.5% sucrose vs 30 ppm PCS-3028 in water
# [6] = 1.5% sucrose vs 50 ppm PCS-3028 in water
# [7] = 1.5% sucrose vs 70 ppm PCS-3028 in water
# [8] = 4% sugar vs 70 ppm PCS3028 in muffins
# [9] = 4% sugar vs 150 ppm PCS3028 in muffins
# [10] = 4% sugar vs 250 ppm PCS3028 in muffins
smiles,measurement,setting,value
OC[C@H]1O[C@@](CO)(O[C@H]2O[C@H](CO)[C@@H](O)[C@H](O)[C@H]2O)[C@@H](O)[C@@H]1O [Sucrose],PC (panelists naming the sample as sweeter),"[1]; Puffed Corn Cereal + vs + 150 ppm PCS-3028, n = 30",28
same,% Frequency (sample named as sweeter),"[1]; Puffed Corn Cereal + vs + 150 ppm PCS-3028, n = 30, listed as Sugar",93.3%
same,% Frequency (sample named as sweeter),[1]; [4],43.3%
same,PC (panelists naming the sample as sweeter),[1]; [4],13
same,% Frequency (sample named as sweeter),[2]; [5],96.7%
same,PC (panelists naming the sample as sweeter),[2]; [5],29
same,PC (panelists naming the sample as sweeter),[2]; [6],21
same,Percent Frequency (sample named as sweeter),[2]; [6],70.0%
same,% Frequency (sample named as sweeter),[2]; [7],10%
same,PC (panelists naming the sample as sweeter),[2]; [7],3
same,Frequency (sample named as sweeter),[3]; [8],76.7%
same,PC (panelists naming the sample as sweeter),[3]; [8],23
same,Frequency (sample named as sweeter),[3]; [9],70%
same,PC (panelists naming the sample as sweeter),[3]; [9],21
same,Frequency (sample named as sweeter),[3]; [10],33.3%
same,PC (panelists naming the sample as sweeter),[3]; [10],10
